According to publication PMC6120666 (The EMBO Journal, 2018):

Experiments:
recombinant RIPK1 = target: T1, recombinant RIPK1 (Homo sapiens, UniProt Q13546); test: RIPK1 ADPGlo kinase assay; format: biochemical; settings: concentrations up to 1 µM
T1 construct: made in house
Protocol: (§1) Cell viability was determined using CellTiter‐Glo assay (Promega). […] Kinase activities were determined using ADPGlo assay (Promega). • Structure of the active conformation of RIPK2 kinase domain in complex with AMP‐PNP (PDB ID: 5AR3). Figure depicts locations of the adenine and deep pockets. […] Key residues discussed in the text are shown as sticks (Lys/Glu Glu‐in bond—bottom left, catalytic Asp residues (Asp146/Asp164)—bottom right, R‐spine—right). P‐loop of CSLP18 structure is shown in yellow. Structured segment of activation segment (AS) observed in active conformation structures is shown in red. • Structure of RIPK2 kinase domain (gray ribbons) in complex with CSLP18 (orange) (PDB ID 6FU5). Sticks are shown for residues in the vicinity of the cavity surrounding the key inhibitor position R1. A 2Fo‐Fc electron density map contoured at 1 sigma is shown for the inhibitor and the residues lining the key region around inhibitor R^1 position. • Molecular docking model of RIPK2 kinase domain in complex with CSLP37 (yellow) based on RIPK2/CSLP18 structure (Fig 3D). […] Data information: Data in (A–C, G) represent the mean ± SEM of three independent experiments. **P < 0.01. Two‐way ANOVA was used to determine statistical significance. […]

[1] = target: T2, cIAP1 BIR2 - RIPK2 interaction (Homo sapiens, UniProt O43353); test: GST-BIR2-cIAP1 pulldown of RIPK2; format: binding; settings: U2OS/NOD2 lysates; CSLP37 1.8 μM, CSLP43 2 μM
T2 construct: Pulldown of RIPK2 from U2OS/NOD2 cell lysates with recombinant; endogenous in cells; host or cells: U2OS/NOD2 cell lysate (RIPK2); E. coli BL21 (GST-BIR2-cIAP1)
Protocol: Figure EV4 Inhibition of RIPK2 ubiquitination and cIAP1 binding by CSLP inhibitors • A Coomassie Blue staining of His Trap and gel filtration purified His6‐GST‐XIAP‐BIR2 WT and D214S recombinant proteins at two different concentrations as indicated. • B Pulldown of RIPK2 from U2OS/NOD2 cell lysates with recombinant GST‐BIR2‐cIAP1 in the presence of CSLP inhibitors. […] Purified material and lysates were analyzed by immunoblotting. • C, D Purification of Ub‐conjugates from U2OS/NOD2 cells (C) or THP‐1 cells (D) after treatment with L18‐MDP (200 ng/ml, 1 h) and CSLP compounds as indicated. Purified material and lysates were analyzed by immunoblotting. […]
For co‐immunoprecipitation of HA‐XIAP with RIPK2, transfected and treated cells were lysed in TBS buffer containing 0.5% NP‐40, cOmplete and PhosSTOP inhibitors (Roche) and the lysate was cleared by centrifugation. The lysates were incubated with anti‐HA‐agarose overnight, washed 3× with lysis buffer, and analyzed by immunoblotting. […] Bound material was washed 3× with lysis buffer or PBS, eluted with 15 mM Glutathione in PBS, and analyzed by immunoblotting. […] The bound material was eluted and analyzed as described above. Ubiquitin conjugates were purified from treated cells using GST‐1xUBA^ubq ubiquitin affinity reagent (termed TUBE pulldown) and analyzed by immunoblotting as described (Fiil et al, 2013). […]

recombinant RIPK3 = target: T3, recombinant RIPK3 (Homo sapiens, UniProt Q9Y572); test: RIPK3 ADPGlo kinase assay; format: biochemical; settings: concentrations up to 1 µM
T3 construct: made in house
Protocol: as §1

T1 sequence (Q13546 whole entry, species assumed): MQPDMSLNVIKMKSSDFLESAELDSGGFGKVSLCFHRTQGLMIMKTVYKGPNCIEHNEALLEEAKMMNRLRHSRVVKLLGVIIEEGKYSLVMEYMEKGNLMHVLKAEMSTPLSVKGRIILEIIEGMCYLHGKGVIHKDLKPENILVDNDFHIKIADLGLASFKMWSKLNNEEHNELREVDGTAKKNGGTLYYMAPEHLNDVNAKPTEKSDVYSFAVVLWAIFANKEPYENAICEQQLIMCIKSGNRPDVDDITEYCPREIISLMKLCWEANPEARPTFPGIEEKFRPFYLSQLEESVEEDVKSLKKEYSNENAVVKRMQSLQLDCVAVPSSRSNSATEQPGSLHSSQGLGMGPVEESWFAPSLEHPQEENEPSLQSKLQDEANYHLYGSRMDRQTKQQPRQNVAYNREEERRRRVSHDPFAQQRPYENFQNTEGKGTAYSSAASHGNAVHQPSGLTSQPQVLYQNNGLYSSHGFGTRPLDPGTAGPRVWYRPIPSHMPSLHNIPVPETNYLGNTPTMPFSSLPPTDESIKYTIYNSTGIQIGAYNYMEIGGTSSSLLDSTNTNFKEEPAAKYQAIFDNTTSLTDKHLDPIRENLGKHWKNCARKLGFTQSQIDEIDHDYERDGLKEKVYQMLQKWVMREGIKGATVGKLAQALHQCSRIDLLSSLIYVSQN
T3 sequence (Q9Y572 whole entry, species assumed): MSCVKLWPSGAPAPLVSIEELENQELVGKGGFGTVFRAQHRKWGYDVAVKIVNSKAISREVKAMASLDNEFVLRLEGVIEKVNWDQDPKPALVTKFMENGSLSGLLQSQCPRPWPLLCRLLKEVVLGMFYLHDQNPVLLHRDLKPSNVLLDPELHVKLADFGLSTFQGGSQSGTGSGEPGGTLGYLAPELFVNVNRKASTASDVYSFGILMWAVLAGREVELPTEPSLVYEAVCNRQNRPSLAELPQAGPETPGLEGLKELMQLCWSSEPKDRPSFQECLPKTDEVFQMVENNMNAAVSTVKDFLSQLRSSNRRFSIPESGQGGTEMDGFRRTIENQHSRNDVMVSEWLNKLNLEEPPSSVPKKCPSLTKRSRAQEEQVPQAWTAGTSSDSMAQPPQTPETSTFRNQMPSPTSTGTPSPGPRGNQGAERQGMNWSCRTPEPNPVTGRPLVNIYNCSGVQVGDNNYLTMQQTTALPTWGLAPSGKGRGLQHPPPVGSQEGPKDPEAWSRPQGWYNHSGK
T2 sequence (O43353 whole entry): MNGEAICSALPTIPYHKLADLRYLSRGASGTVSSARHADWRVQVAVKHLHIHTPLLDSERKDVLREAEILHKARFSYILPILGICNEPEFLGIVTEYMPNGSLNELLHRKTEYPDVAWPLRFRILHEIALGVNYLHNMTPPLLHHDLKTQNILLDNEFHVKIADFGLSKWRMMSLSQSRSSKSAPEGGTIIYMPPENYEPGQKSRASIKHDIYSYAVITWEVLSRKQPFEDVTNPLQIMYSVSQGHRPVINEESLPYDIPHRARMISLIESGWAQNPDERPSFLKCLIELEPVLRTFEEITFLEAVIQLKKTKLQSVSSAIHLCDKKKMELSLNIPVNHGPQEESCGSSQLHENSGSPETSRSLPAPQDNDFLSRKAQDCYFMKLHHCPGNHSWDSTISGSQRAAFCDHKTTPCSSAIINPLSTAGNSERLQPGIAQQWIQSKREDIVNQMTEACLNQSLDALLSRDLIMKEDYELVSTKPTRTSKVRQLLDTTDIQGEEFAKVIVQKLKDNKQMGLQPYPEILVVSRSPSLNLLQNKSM

Row | Compound | inhibitory activity against RIPK1 (recombinant RIPK1) | interaction between GST-BIR2-cIAP1 and RIPK2 in cell lysates [1] | inhibitory activity against RIPK3 (recombinant RIPK3)
1 | CCCS(=O)(=O)Nc1cc(-c2cc(-c3ccc(N4CCNCC4)cc3)cnc2N)cc(F)c1OC [CSLP37] | no inhibitory activity | both antagonized | no inhibitory activity
2 | CCCS(=O)(=O)Nc1cc(-c2cc(-c3ccc(N4CCNCC4)cc3)cnc2N)cc(OC)c1OC [CSLP43] | no inhibitory activity | both antagonized | no inhibitory activity
